Key:
Adenosine receptor A1 = molecular target: T1, Adenosine receptor A1 (Homo sapiens, UniProt P30542); test: Displacement of [3H]DPCPX from human recombinant adenosine A1 receptor expressed in HEK293T cells by scintillation counting; type: cell-based, HEK-293T
T1 sequence (P30542 whole entry): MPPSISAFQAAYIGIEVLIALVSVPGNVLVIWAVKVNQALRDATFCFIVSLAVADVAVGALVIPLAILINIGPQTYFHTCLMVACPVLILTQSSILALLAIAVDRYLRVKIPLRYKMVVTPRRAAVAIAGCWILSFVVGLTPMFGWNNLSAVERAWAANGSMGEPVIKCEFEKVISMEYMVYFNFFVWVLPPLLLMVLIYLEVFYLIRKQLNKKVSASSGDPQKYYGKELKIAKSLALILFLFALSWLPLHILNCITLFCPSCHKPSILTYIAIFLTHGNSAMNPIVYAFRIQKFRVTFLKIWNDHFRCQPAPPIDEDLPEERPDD

Adenosine receptor A2a = Adenosine receptor A2a (Homo sapiens, UniProt P29274); test: biochemical
Adenosine receptor A2a, sequence (P29274 whole entry): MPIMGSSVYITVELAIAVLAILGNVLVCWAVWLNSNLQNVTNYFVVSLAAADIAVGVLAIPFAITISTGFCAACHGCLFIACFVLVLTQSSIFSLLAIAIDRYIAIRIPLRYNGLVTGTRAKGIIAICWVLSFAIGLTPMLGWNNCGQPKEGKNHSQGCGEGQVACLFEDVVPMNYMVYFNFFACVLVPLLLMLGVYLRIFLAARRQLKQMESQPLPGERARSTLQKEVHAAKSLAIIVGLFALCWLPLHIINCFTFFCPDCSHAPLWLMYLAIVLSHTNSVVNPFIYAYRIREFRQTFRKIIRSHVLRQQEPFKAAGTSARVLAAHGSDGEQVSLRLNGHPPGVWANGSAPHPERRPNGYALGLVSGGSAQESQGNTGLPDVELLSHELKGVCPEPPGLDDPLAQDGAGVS
Description: Displacement of [3H]CGS21680 from human recombinant adenosine A2A receptor expressed in HEK293T cells by scintillation counting

Adenosine receptor A3 = molecular target: T2, Adenosine receptor A3 (Homo sapiens, UniProt P0DMS8); test: Displacement of [3H]NECA from human recombinant adenosine A3 receptor expressed in HEK293T cells by scintillation counting; type: cell-based, HEK-293T
T2 sequence (P0DMS8 whole entry): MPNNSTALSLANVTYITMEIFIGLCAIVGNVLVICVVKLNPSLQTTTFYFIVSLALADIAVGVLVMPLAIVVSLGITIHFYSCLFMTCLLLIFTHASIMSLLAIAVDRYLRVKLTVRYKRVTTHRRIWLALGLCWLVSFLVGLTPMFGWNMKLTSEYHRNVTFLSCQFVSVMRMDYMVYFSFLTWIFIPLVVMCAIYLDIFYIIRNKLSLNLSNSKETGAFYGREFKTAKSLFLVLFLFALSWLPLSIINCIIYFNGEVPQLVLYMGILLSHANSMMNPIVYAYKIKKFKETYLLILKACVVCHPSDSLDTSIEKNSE

[1] = molecular target: T3, Adenosine receptor A3 (Homo sapiens) (UniProt P0DMS8); test: Inhibition of [3H]NECA binding to human recombinant adenosine A3 receptor expressed in HEK293T cells at 100 uM by scintillation counting; type: cell-based; conditions: HEK-293T
T3 sequence (whole entry): T2 sequence (P0DMS8 whole entry)

Row | Compound | Ki (Adenosine receptor A1) [µM] | Ki (Adenosine receptor A2a) [µM] | Ki (Adenosine receptor A3) [µM] | inhibition [1] [%]
1 | Cn1c(=O)c2c(ncn2C)n(C)c1=O |  |  |  | 9
2 | CCCn1c(=O)c2[nH]c3cnccc3c2n(CCC)c1=O | 1.41 | 3.63 | 0.29 | 
3 | Cn1c(=O)c2[nH]c3cnccc3c2n(C)c1=O | 11.7 | 10.1 | 0.526 | 
4 | CCCOc1cnc2c(c1)[nH]c1c(=O)n(CCC)c(=O)n(CCC)c12 | 0.921 | 1.47 | 0.209 | 

Next, values leading:

Row | Ki (Adenosine receptor A1) [µM] | Ki (Adenosine receptor A2a) [µM] | Ki (Adenosine receptor A3) [µM] | inhibition [1] [%] | Compound
5 | 0.379 | 0.893 | 0.0139 |  | Cn1c(=O)c2[nH]c3cccnc3c2n(C)c1=O
6 | 0.132 | 0.57 | 0.0168 |  | CCCn1c(=O)c2[nH]c3cccnc3c2n(CCC)c1=O
7 | 0.346 | 0.164 | 0.00382 |  | CCCOc1cncc2[nH]c3c(=O)n(CCC)c(=O)n(CCC)c3c12

Source: ChEMBL document CHEMBL1152960 (Bioorg Med Chem, 2009)
